Measured values reported in US6790854B2, “Diphenylalkylamine derivatives useful as opioid receptor agonists” (Meiji Seika Kaisha, Ltd., priority 2000, dated 2004).

Biological target: T1, opioid δ receptor (Rattus norvegicus, UniProt P33533)
T1 construct: A membrane fraction of opioid δ receptor was prepared from the rat forebrain; from tissue; host or cells: rat forebrain membrane fraction
Assay: Binding affinity for opioid δ receptor ([3H]-Naltrindole displacement, rat forebrain membrane fraction)
Conditions: [3H]-Naltrindole 1 nM, 25° C., 90 minutes, Ki calculated from IC50 by the Cheng-Prusoff equation

T1 sequence (P33533 whole entry): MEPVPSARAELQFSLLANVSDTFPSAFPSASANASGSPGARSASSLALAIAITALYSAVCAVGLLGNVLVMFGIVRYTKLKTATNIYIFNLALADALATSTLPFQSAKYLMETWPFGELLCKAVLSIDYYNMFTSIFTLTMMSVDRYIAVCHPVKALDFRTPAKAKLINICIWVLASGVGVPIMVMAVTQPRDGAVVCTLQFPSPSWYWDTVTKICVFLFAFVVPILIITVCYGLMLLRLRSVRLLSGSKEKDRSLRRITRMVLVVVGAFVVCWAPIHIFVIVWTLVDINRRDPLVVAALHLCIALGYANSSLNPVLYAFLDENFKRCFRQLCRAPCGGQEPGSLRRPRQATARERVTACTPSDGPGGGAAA

In the case of CCN(CC)C(=O)c1ccc(C(CCN2CCC3(CC2)CNC(=O)c2cccc(C)c23)c2ccccc2OC)cc1 (stereo not shown) [Example 9, 1′-[3-(4-Diethylcarbamoylphenyl)-3-(2-methoxyphenyl)Propyl]-2,3-dihydro-5-methylspiro [isoquinoline-4(1H),4′-piperidin]-1-one], the Ki is reported as 1210 nM.
